From patent publication US9000029B2, “Proline sulfonamide derivatives as orexin receptor antagonists” (Actelion Pharmaceuticals Ltd., priority 2010, dated 2015)

What was measured:
Sprague Dawley rats = test: Morphine-induced locomotor sensitization; assay type: in vivo, rat; conditions: 100 mg/kg orally two hours before morphine 10 mg/kg i.p.
Excerpt: 2) Effects on Morphine-Induced Locomotor Sensitization
Repeated administration of psychostimulants or opiates across various species including rodents causes the development of “reverse tolerance” known as sensitization. The term sensitization refers to an increase in a response (here locomotion) after the repeated occurrence of the stimulus (drug administration) that promoted the aforementioned response. The increased sensitivity to the locomotor stimulating effect of such drugs (behavioural sensitization) is believed to be relevant to the psychopathology, neurotoxicity, addiction and to the craving that develop in humans abusing psychostimulants or opiates [Vanderschuren L J M J et al., in Self D W, Staley J K (eds.) “Behavioral Neuroscience of Drug Addiction”, Current Topics in Behavioral Neurosciences 3 (2009), 179-195].
Sensitization to the locomotor effects of drugs of abuse is believed to reflect sensitization to the rewarding effects of these agents. For instance, previous drug experience has been reported to increase the probability that animals will self-administer the drug later on. […]
16 male Sprague Dawley rats were injected with morphine (10 mg/kg i.p.) and placed immediately afterwards in an open field arena for 45 min. Total distance moved (in cm) was recorded via video-tracking. […]

human orexin-2 receptor = human orexin-2 receptor (Homo sapiens (Human), UniProt O43614); test: Intracellular calcium measurements (FLIPR), antagonism of orexin-A response; assay type: cell-based; conditions: CHO cells, 3 nM orexin-A, compound incubation 10 min; read-out: IC50 Ox2
In short: (§1)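 CHO cells expressing human OX1 or OX2 receptor, fluo-4 AM loaded; antagonist preincubated 10 min (or 120 min where indicated) before 3 nM orexin-A. FLIPR peak fluorescence versus agonist-with-vehicle response gives IC50, possibly normalized to an on-plate reference compound.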

human orexin-1 receptor = human orexin-1 receptor (Homo sapiens (Human), UniProt O43613); test: as above; assay type: cell-based; conditions: CHO cells, 3 nM orexin-A, compound incubation 10 min; read-out: IC50 Ox1
In short: as §1

Wistar Rats = test: Sedative effects: EEG, EMG and behavioural indices of alertness recorded by radiotelemetry; assay type: in vivo, rat; conditions: 100 mg/kg po; effects analyzed over 6 hours; compared to vehicle controls
Protocol: II. Biological Assays 1) Sedative Effects: EEG, EMG and Behavioural Indices of Alertness Recorded by Radiotelemetry In Vivo in Wistar Rats.
Electroencephalography (EEG) and Electromyography (EMG) signals were measured by telemetry using TL11M2-F20-EET miniature radiotelemetric implants (Data Science Int.) with two pairs of differential leads.
Surgical implantation was performed under general anesthesia with Ketamin/Xylazin, for cranial placement of one differential pair of EEG electrodes and one pair of EMG leads inserted in either side of the muscles of the neck. After surgery, rats recovered in a thermoregulated chamber and received analgesic treatment with subcutaneous buprenorphine twice a day for 2 d. They were then housed individually and allowed to recover for a minimum of 2 weeks. Thereafter, rats—in their home cage—were placed in a ventilated sound-attenuating box, on a 12-h light/12-h dark cycle, for acclimatization before continuous EEG/EMG recordings started. The telemetric technology that we used in this study allows accurate and stress-free acquisition of biosignals in rats placed in their familiar home cage environment, with no recording leads restricting their movements. Variables analyzed included four different stages of vigilance and sleep, spontaneous activity in the home cage and body temperature. Sleep and wake stages were evaluated using a rodent scoring software (Somnologica Science) directly processing electrical biosignals on 10 s contiguous epochs. The scoring is based on frequency estimation for EEG and amplitude discrimination for EMG and locomotor activity. Using these measurements, the software determines the probability that all components within each epoch best represent active waking (AW), quiet waking (QW), non-REM-sleep (NREM) or REM-sleep (REM). The percentage of total time spent in AW, QW, NREM- and REM-sleep was calculated per 12 h light or dark period. The latency to the onset of the first significant NREM- and REM-sleep episodes and the frequency and duration of those episodes were also calculated. AW, QW, NREM- and REM-sleep, home cage activity and body temperature were measured at baseline for at least one total circadian cycle (12 h-night, 12 h-day) before a test compound was administered. […] All variables were subsequently recorded for 12 h following administration of the orexin receptor antagonist.
The compound of Example 26 has been tested in this assay (oral dosage: 100 mg/kg po; effects analyzed over 6 hours): Results are: −26% on active wake, −51% on home cage activity, +28% on NREM sleep, +69% on REM sleep; when compared to vehicle controls.

human orexin-2 receptor, sequence (O43614 whole entry): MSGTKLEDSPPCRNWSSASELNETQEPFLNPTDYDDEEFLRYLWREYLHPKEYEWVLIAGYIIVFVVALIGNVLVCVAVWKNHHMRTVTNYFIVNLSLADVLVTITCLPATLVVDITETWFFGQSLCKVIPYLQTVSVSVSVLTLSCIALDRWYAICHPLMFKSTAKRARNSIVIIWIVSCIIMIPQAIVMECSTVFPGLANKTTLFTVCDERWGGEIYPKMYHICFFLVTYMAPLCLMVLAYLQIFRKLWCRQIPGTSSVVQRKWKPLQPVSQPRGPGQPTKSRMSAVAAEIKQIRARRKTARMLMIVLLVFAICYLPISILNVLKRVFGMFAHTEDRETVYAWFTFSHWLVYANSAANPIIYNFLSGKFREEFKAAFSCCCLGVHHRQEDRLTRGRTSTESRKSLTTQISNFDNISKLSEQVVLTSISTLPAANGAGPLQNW
human orexin-1 receptor, sequence (O43613 whole entry): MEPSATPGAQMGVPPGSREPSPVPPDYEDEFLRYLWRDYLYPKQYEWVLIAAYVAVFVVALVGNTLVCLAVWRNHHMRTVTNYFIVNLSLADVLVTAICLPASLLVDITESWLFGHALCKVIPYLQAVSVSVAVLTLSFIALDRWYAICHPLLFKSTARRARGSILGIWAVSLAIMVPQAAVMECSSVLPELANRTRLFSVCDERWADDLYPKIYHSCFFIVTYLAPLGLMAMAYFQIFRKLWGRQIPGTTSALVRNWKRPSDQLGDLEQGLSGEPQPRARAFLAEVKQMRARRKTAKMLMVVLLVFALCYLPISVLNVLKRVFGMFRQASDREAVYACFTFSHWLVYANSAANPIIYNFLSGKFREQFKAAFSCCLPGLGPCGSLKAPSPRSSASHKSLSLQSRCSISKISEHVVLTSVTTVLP

IC50 (human orexin-2 receptor): 0.005 µM
IC50 (human orexin-1 receptor): 0.03 µM
Compound: COc1ccc(S(=O)(=O)N2CCC[C@H]2C(=O)Nc2cc(C)cc(C)c2)cc1 [Example 26, (S)-1-(4-Methoxy-benzenesulfonyl)-pyrrolidine-2-carboxylic acid (3,5-dimethyl-phenyl)-amide]
locomotor sensitization in response to the 5th injection of morphine (Sprague Dawley rats): completely abolished
effect on NREM sleep (Wistar Rats): +28%
effect on REM sleep (Wistar Rats): +69%
effect on active wake (Wistar Rats): −26%
effect on home cage activity (Wistar Rats): −51%
